Source: patent US10844023B2 (Washington University, priority 2017, dated 2020)

System: Mfn2 null MEFs
Assay: Mitochondrial elongation (aspect ratio) fusogenicity assay
Format: cell-based, mouse
Design: % long compare to B: dose or concentration left out as unconfirmed
Settings: for % long compare to B: mitochondrial elongation relative to Cpd B (B01 = 100), compound overnight as printed (FIG. 48); for % long compare to B / Aspect ratio (MEAN ± SEM): Mfn2 null MEFs; for Fusogenicity Rank: rank order of aspect ratio among 44 soluble library compounds; for Aspect ratio (MEAN ± SEM): overnight, treatment with 1 μM compound (footnote)

SMILES	% long compare to B	Fusogenicity Rank	Aspect ratio (MEAN ± SEM)
CC(Sc1nnc(C2CC2)n1Cc1ccccc1)C(=O)Nc1sccc1C(N)=O (stereo not shown) [B4, 2-{2-[(4-benzyl-5-cyclopropyl-4H-1,2,4-triazol-3-yl)sulfanyl]propanamido}thiophene-3-carboxamide]	4%	–	–
COc1ccc(-n2ccnc2SC(C)C(=O)Nc2sc3c(c2C(N)=O)CCC3)cc1 (stereo not shown) [1-A7, 2-(2-{[1-(4-methoxyphenyl)-1H-imidazol-2-yl]sulfanyl}-propanamido)-4H,5H,6H-cyclopenta[b]thiophene-3-carboxamide]	−24%	–	–
NC(=O)c1c(NC(=O)CSc2ccccc2)sc2c1CCC2 [B2, 2-[2-(phenylsulfanyl)acetamido]-4H,5H,6H-cyclopenta[b]thiophene-3-carboxamide]	12%	–	–
CC1CCCCC1NC(=O)NCCSCc1ccccc1 (stereo not shown) [A10, 1-[2-(benzylsulfanyl)ethyl]-3-(2-methylcyclohexyl)urea]	71%	4	–
Cc1ccc(C(=O)C(C)Sc2nnc3c(=O)n(-c4ccc(C)c(C)c4)ccn23)cc1C (stereo not shown) [D02, 7-(3,4-dimethylphenyl)-3-{[1-(3,4-dimethylphenyl)-1-oxopropan-2-yl]sulfanyl}-7H,8H-[1,2,4]triazolo[4,3-a]pyrazin-8-one]	13%	–	–
Cc1cccc(C)c1NC(=O)CCCSCc1ncc(C(C)C)o1 [drawing 211, N-(2,6-dimethylphenyl)-4-({[5-(propan-2-yl)-1,3-oxazol-2-yl]methyl}sulfanyl)butanamide]	–	25	3.5 ± 0.1
O=C(CSCc1ccc(F)cc1)N1CCc2c([nH]c3ccccc23)C1c1ccc(Cl)cc1 (stereo not shown) [drawing 202, 1-[1-(4-chlorophenyl)-1H,2H,3H,4H,9H-pyrido[3,4-b]indol-2-yl]-2-{[(4-fluorophenyl)methyl]sulfanyl}ethan-1-one]	–	11	4.7 ± 0.9
O=C1CC(SCCc2nc3ccccc3[nH]2)C(=O)N1c1cccc(F)c1 (stereo not shown) [drawing 199, 3-{[2-(1H-1,3-benzodiazol-2-yl)ethyl]sulfanyl}-1-(3-fluorophenyl)pyrrolidine-2,5-dione]	–	3	6.9 ± 0.8
NC(=O)c1c(NC(=O)CSc2nnc(C3CC3)n2-c2ccccc2)sc2c1CCCC2 [1-E5, 2-{2-[(5-cyclopropyl-4-phenyl-4H-1,2,4-triazol-3-yl)sulfanyl]-acetamido}-4,5,6,7-tetrahydro-1-benzothiophene-3-carboxamide]	−3%	–	–
S=C(NCCSCc1ccco1)NC1CC2CCC1C2 (stereo not shown) [B04, 1-{bicyclo[2.2.1]heptan-2-yl}-3-(2-{[(furan-2-yl)methyl]sulfanyl}ethyl)thiourea]	9%	–	–
Cc1nc[nH]c1CSCCNC(=O)C1CCN(C(=O)C2CCC2)CC1 [D11, 1-cyclobutanecarbonyl-N-(2-{[(4-methyl-1H-imidazol-5-yl)methyl]sulfanyl}-ethyl)piperidine-4-carboxamide]	−8%	–	–
Cc1ccc(C(C)C)c(OCCCSCc2nc3ccccc3[nH]2)c1 [C09, 2-[({3-[5-methyl-2-(propan-2-yl)phenoxy]propyl}-sulfanyl)methyl]-1H-1,3-benzodiazole]	−5%	–	–
CCC(C)C1N=C2c3ccccc3N=C(SC(C)C(=O)Nc3cc(OC)cc(OC)c3)N2C1=O (stereo not shown) [C04, 2-{[2-(butan-2-yl)-3-oxo-2H,3H-imidazo[1,2-c]quinazolin-5-yl]sulfanyl}-N-(3,5-dimethoxyphenyl)pro-panamide]	−1%	–	–
O=C(CSc1nnc2n1CCCCC2)Nc1sc2c(c1C(=O)NCc1ccccc1)CCCC2 [1-D4, N-benzyl-2-(2-{5H,6H,7H,8H,9H-[1,2,4]triazolo[4,3-a]azepin-3-ylsulfanyl}acetamido)-4,5,6,7-tetrahydro-1-benzothiophene-3-carboxamide]	105%	–	–
NC(=O)c1c(NC(=O)CSc2nnc3n2CCCCC3)sc2c1CCC2 [1-A10, 2-(2-{5H,6H,7H,8H,9H-[1,2,4]triazolo[4,3-a]azepin-3-ylsulfanyl}acetamido)-4H,5H,6H-cyclopenta[b]thio-phene-3-carboxamide]	45%	–	–
NC(=O)c1c(NC(=O)CSc2nnc(-c3ccncc3)n2-c2ccc(F)cc2)sc2c1CCC2 [1-H5, 2-(2-{[4-(4-fluorophenyl)-5-(pyridin-4-yl)-4H-1,2,4-triazol-3-yl]sulfanyl]acetamido)-4H,5H,6H-cyclopenta[b]thio-phene-3-carboxamide]	23%	–	–
Cc1nnc(SCC(=O)Nc2sc3c(c2C(N)=O)CCC3)n1Cc1ccccc1 [1-C2, 2-{2-[(4-benzyl-5-methyl-4H-1,2,4-triazol-3-yl)sulfanyl]acetamido}-4H,5H,6H-cyclopenta[b]thiophene-3-carboxamide]	−18%	–	–
S=C(NCCSCc1ccco1)NC1CC2CCC1C2 (stereo not shown) [drawing 225, 1-{bicyclo[2.2.1]heptan-2-yl}-3-(2-{[(furan-2-yl)methyl]sulfanyl}ethyl)thiourea]	–	23	3.7 ± 0.9
NC(=O)c1c(NC(=O)CSc2nnc(-c3cccnc3)n2-c2ccccc2)sc2c1CCC2 [1-F11, 2-(2-{[4-phenyl-5-(pyridin-3-yl)-4H-1,2,4-triazol-3-yl]sulfanyl]acet-amido)-4H,5H,6H-cyclopenta[b]-thiophene-3-carboxamide]	13%	–	–
Cc1ccc(-c2noc(CSCCCC(=O)Nc3c(C)cccc3C)n2)cc1F [drawing 209, N-(2,6-dimethylphenyl)-4-({[3-(3-fluoro-4-methylphenyl)-1,2,4-oxadiazol-5-yl]methyl}sulfanyl)butanamide]	–	20	3.9 ± 0.5
CC(Sc1nnc(Cc2cccs2)n1C1CC1)C(=O)Nc1sc2c(c1C(N)=O)CCC2 (stereo not shown) [1-G6, 2-[2-({4-cyclopropyl-5-[(thiophen-2-yl)methyl]-4H-1,2,4-triazol-3-yl}sulfanyl)propanamido]-4H,5H,6H-cyclopenta[b]thio-phene-3-carboxamide]	9%	–	–
CC(Sc1nnc(C2CC2)n1Cc1ccccc1)C(=O)Nc1sc2c(c1C(N)=O)CCC2 (stereo not shown) [1-C7, 2-{2-[(4-benzyl-5-cyclopropyl-4H-1,2,4-triazol-3-yl)sulfanyl]-propanamido}-4H,5H,6H-cyclopenta[b]thiophene-3-carboxamide]	−9%	–	–
CC(Sc1nc(CN2CCOCC2)nc2ccccc12)C(=O)Nc1cccc(C(F)(F)F)c1 (stereo not shown) [A08, 2-({2-[(morpholin-4-yl)methyl]quinazolin-4-yl}sulfanyl)-N-[3-(trifluoromethyl)-phenyl]propanamide]	47%	–	–
CCn1c(Cc2ccccc2)nnc1SC(C)C(=O)Nc1sc2c(c1C(N)=O)CCC2 (stereo not shown) [1-A8, 2-{2-[(5-benzyl-4-ethyl-4H-1,2,4-triazol-3-yl)sulfanyl]-propanamido}-4H,5H,6H-cyclopenta[b]thiophene-3-carboxamide]	47%	–	–
Cc1ccc(NC(=O)CC2SC(NC(c3ccc(C(C)C)cc3)c3c(O)[nH]c(=O)[nH]c3=O)=NC2=O)c(C)c1 (stereo not shown) [C11, N-(2,4-dimethylphenyl)-2-(2-{[(6-hydroxy-2,4-dioxo-1,2,3,4-tetrahydropyrimidin-5-yl)[4-(propan-2-yl)phenyl]methyl]am-ino}-4-oxo-4,5-dihydro-1,3-thiazol-5-yl)acetamide]	−4%	–	–
